Results on three compounds are retold here after patent publication EP1484329A1, “Indole derivatives with apoptosis inducing activity” (Zentaris GmbH, priority 2003, dated 2004).

One assay has as its system U118MG. Nature of the assay: XTT proliferation assay, U118MG. Type of assay: cell-based. The following applies: Homo sapiens, U-118-MG; read-out: XTT Proliferationsassay, EC50 U118MG. The text has this:
(§1) Die Substanzen 1,2, 4-6 wurden in einem Proliferationstest an etablierten Tumorzelllinien auf ihre anti-proliferative Aktivität hin untersucht (D.A. Scuderio et al. Cancer Res. 1988, 48, 4827-4833). Der verwendete Test bestimmt die zelluläre Dehydrogenase-Aktivität und ermöglicht eine Bestimmung der Zellvitalität und indirekt der Zellzahl. Bei den verwendeten Zelllinien handelt es sich um die humane Cervixkarzinom Zelllinie KB/HeLa (ATCC CCL17), die ovariale Adenokarzinomzelllinie SKOV-3 (ATCC HTB77), die humane Glioblastom Zelllinie SF-268 (NCI 503138) und die Lungenkarzinom Zelllinie NCI-H460 (NCI 503473). Des weiteren wurde zur Untersuchung der Zellzyklus-spezifischen Wirkung der Substanz ein RKOp27 Zellsystem verwendet (M. Schmidt et al. Oncogene19(20):2423-9, 2000). Bei RKO handelt es sich um eine humane Kolonkarzinomlinie, in der der Zellzyklusinhibitor p27 ^kip1 mittels des Ecdyson Expressionssystems induziert zur Expression gebracht und zu einem Zellzyklusarrest spezifisch in G2 geführt werden kann. Eine unspezifisch wirkende Substanz hemmt die Proliferation unabhängig davon, ob die RKO Zelle in G1 oder G2 arretiert ist oder nicht. Zellzyklus-spezifische Substanzen wie beispielsweise Tubulininhibitoren sind hingegen nur dann zytotoxisch, wenn Zellen nicht arretiert sind und der Zellzyklus durchlaufen wird. In Tabelle 1 ist die zytotoxische bzw. wachstumshemmende Aktivität der beschriebenen Verbindungen mit / ohne Expression von p27^kip1gezeigt. Die getesteten Verbindungen zeigten im induzierten Zustand von p27^kiP1 keine zytotoxische Aktivität. Die Ergebnisse zeigen eine sehr potente Hemmung der Proliferation ausgewählter Tumorzelllinien durch die genannten Substanzen. Tabelle 1:
Zur weiteren Charakterisierung wurden die Substanzen 1-6 an einem Panel von 7 humanen Tumorzelllinien auf ihre anti-proliferative Wirkung hin untersucht. Bei den untersuchten Zelllinien handelt es sich um die humanen Glioma Zelllinien A172 (ATCC CRL-1620) und U118 (ATCC HTB-15), die humane Lungenkarzinom Zelllinie A549, das humane epidermoide Karzinom A431 (ATCC CRL-2592), die humanen Prostatakarzinom Zelllinien DU145 (ATCC HTB-81) und PC3 (ATCC CRL-1435) und die humane Kolon Adenokarzinomzelllinie HT29 (ATCC HTB-38). Es handelt sich hierbei um sehr gut charakterisierte, etablierte Zelllinien, die von ATCC, ECACC bzw. NCI erhalten und in Kultur genommen wurden. Die in Tab. […]
(Tetrazolium dyes change colour on reduction, which living cells bring about.)

In another assay the test system is Rindertubulin. As to the kind of experiment: Inhibition of tubulin polymerisation in vitro. Type of assay: biochemical, Rind. The following applies: Tubulin with 30% MAPs; mean of two independent experiments. The text has this: In diesem Test wird durch Zyklen von Polymerisation und Depolymerisation aufgereinigtes Tubulin eingesetzt, welches durch Zugabe von GTP und Erwärmung zur Polymerisation gebracht wird. […]

The target of a further assay is DNA-Topoisomerase II (Homo sapiens, UniProt P11388). As to the kind of experiment: kDNA decatenation assay for topoisomerase II activity. Type of assay: biochemical. The following applies: tested at 100, 31.6 and 10 µM. As to the method:
In diesem von P. Arimondo (Anti-Cancer Drug Design 2000, 15 (6), 413-421) beschriebenen Assay wird kDNA mit humaner DNA-Topoisomerase II in Abwesenheit oder Gegenwart der Testverbindungen behandelt. Die Testung der erfindungsgemäßen Verbindungen 2, 4 und 5 erfolgte hierbei bei drei unterschiedlichen Konzentrationen (100, 31.6 und 10 µM). Zum Vergleich setzte man eine Positivkontrolle und die Referenzverbindungen m-Amsacrin (m-Amsa), Paclitaxel und Vincristine bei einer jeweiligen Konzentration von 100µM ein.
Zu 1µL vorgelegter Testsubstanz (20fach konzentriert in 100% DMSO) werden 2µL 10x Assay Puffer, 1µL kDNA (200ng), 0.5µL human Topoisomerase II (1 unit) und 15,5µL H2O pipettiert und gemischt.
Die Reaktionsansätze werden in den auf 37°C vorgeheizten Heizblock gestellt und 10min bei 37°C inkubiert. Die Inkubation wird nach Zugabe von 4µL 5x Stop Puffer gestoppt und nachfolgend die Substanz mit CIA extrahiert. Danach werden 20µL des Überstandes auf ein 1 % Agarosegel mit 0,25µg/mL Ethidiumbromid aufgetragen und 1h bei 100V aufgetrennt. Zum Schluss wird das Gel unter UV-Anregung fotografiert (s. Graph 1). Die Quantifizierung der Inhibierung der Decatenation von kDNA erfolgt mit der GeIPro® Analyzer Software (s. Graph 2) [formula] [formula]

In the next assay the test system is NCI-H460. Nature of the assay: XTT proliferation assay, NCI-H460. The following applies: Homo sapiens, read-out: XTT Proliferationsassay, EC50 NCI-H460. Type of assay: cell-based.
Description: as §1, with “Substanzen.” for “Substanzen. Tabelle 1:”

The next assay concerns LT12mdr. Nature of the assay: XTT proliferation assay, LT12mdr (resistant). Type of assay: cell-based. The following applies: read-out: XTT Proliferationsassay, EC50 LT12mdr.
Description: as §1
(§2) Zur weiteren Charakterisierung wurden die Substanzen 1,2,4-6 gegenüber multi drug resistenten Zelllinien im Vergleich zu den nicht-resistenten Wildtypzelllinien untersucht.
(§3) Bei den untersuchten Zelllinien handelt es sich um die murine L1210, die akute myeloische Leukaemie Zelllinie LT12 und um die resistenten Linien L1210/mdr und LT12/mdr. Außerdem wurden die murine P388 Zelllinie (methyl-cholanthreneinduced lymphoid neoplasm) sowie die Doxorubicin-resistente P388 als Testsysteme herangezogen.

The test system of the next assay is L1210. As to the kind of experiment: XTT proliferation assay, L1210 (wild type). Type of assay: cell-based, murine.
Description: as §1, §2, §3

Each structure is given as a SMILES string. In brackets after ≈: the same amount, converted by molar mass. Read-outs that look alike come from different tables or passages of the source.

Chain of DNA-Topoisomerase II (P11388 whole entry): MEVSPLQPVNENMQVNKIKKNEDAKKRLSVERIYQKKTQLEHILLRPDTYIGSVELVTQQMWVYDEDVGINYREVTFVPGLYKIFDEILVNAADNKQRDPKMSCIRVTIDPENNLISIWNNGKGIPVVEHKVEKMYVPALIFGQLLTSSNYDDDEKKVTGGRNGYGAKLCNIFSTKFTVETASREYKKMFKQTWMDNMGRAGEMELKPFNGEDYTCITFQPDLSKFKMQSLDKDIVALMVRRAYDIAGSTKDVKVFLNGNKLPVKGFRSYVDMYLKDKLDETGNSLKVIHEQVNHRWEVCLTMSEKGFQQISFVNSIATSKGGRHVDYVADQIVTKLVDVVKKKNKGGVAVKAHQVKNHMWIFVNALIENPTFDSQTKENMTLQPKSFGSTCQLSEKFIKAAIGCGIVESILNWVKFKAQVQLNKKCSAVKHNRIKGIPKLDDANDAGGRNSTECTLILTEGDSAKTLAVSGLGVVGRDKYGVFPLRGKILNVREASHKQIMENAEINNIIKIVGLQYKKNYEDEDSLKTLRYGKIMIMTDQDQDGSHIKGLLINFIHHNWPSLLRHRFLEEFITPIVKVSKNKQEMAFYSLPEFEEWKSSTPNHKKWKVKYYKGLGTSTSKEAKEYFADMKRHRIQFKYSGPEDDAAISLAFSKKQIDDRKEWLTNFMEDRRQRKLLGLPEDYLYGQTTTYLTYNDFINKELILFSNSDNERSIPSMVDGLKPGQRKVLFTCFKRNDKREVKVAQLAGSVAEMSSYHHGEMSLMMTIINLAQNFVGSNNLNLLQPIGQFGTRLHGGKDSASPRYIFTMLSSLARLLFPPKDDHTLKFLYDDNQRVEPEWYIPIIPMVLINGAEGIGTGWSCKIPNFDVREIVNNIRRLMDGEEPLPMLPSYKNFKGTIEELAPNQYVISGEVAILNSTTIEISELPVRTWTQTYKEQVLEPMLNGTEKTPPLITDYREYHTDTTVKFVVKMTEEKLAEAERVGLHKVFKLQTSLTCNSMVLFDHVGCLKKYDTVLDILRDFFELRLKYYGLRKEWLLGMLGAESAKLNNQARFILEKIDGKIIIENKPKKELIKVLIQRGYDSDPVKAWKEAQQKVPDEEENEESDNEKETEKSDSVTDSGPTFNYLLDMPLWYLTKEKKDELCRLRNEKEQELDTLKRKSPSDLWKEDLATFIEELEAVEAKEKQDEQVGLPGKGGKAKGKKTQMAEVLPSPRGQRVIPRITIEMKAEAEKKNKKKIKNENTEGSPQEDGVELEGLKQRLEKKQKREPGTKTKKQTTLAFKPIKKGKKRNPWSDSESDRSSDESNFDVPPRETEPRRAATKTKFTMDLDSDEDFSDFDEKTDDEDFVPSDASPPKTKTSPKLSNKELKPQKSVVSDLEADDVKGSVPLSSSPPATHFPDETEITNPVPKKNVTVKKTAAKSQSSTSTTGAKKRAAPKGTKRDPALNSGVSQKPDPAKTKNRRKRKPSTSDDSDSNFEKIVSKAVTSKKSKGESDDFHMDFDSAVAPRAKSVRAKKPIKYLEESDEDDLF

Take `O=C(Nc1ccc2ncccc2c1)C(=S)c1cn(Cc2ccc(Cl)cc2)c2ccccc12` [Verbindung 4, 2-[1-(4-Chlorbenzyl)-1 H-indol-3-yl]-N-chinolin-6-yl-2-thioxoacetamid]: in the assay with U118MG, the EC50 worked out at 0.03 mg/L (≈ 0.0658 µM). Also, in the assay on Rindertubulin, the “Hemmung der Tubulin-Polymerisation, EC50” value is 0.97 mg/L. The “Hemmung der Topoisomerase II (kDNA Assay)” value (“Hemmung der Topoisomerase II” for short) at DNA-Topoisomerase II is reported as “signifikante Hemmung der Topoisomerase II”.

For the compound `O=C(Nc1ccc2ncccc2c1)C(=O)c1cn(Cc2ccc(Cl)cc2)c2ccccc12` [Verbindung 2, 2-[1-(4-Chlor-benzyl)-1 H-indol-3-yl]-2-oxo-N-chinolin-6-yl-acetamid], the EC50 came to 0.054 mg/L (≈ 0.123 µM) in the assay with NCI-H460; 0.022 mg/L (≈ 0.05 µM) in the assay on U118MG; 0.063 mg/L (≈ 0.143 µM) with LT12mdr; 0.074 mg/L (≈ 0.168 µM) in the assay with L1210 (Mus musculus, L1210, read-out: XTT Proliferationsassay, EC50 L1210). The “Hemmung der Tubulin-Polymerisation, EC50” value in the assay on Rindertubulin amounted to 1.23 mg/L. In addition, the “Hemmung der Topoisomerase II” value on DNA-Topoisomerase II is listed as “signifikante Hemmung der Topoisomerase II”.

Turning to `O=C(Nc1cnc2nccnc2c1)C(=O)c1cn(Cc2ccc(Cl)cc2)c2ccccc12` [Verbindung 5, 2-[1-(4-Chlor-benzyl)-1H-indol-3-yl]-2-oxo-N-pyrido[2,3-b]pyrazin-7-yl-acetamid], the EC50 with NCI-H460 came to 0.046 mg/L (≈ 0.104 µM); with U118MG, 0.013 mg/L (≈ 0.0294 µM); with LT12mdr it was 0.017 mg/L (≈ 0.0385 µM); in the assay on L1210 (Mus musculus, L1210; read-out: XTT Proliferationsassay, EC50 L1210), 0.018 mg/L (≈ 0.0407 µM). In the assay on Rindertubulin, the “Hemmung der Tubulin-Polymerisation, EC50” value came to 0.71 mg/L. In addition, on DNA-Topoisomerase II, the “Hemmung der Topoisomerase II” value is given as “Inhibierung der Topoisomerase II”.
